Data reported in patent EP4567034A1 (Korea Institute of Science and Technology, priority 2022, dated 2024).

Columns and labels:
[1] = target: T1, S1P1 receptor (Homo sapiens, UniProt P21453); test: S1P1 β-arrestin recruitment assay in S1P1 overexpressing cell line (DiscoverX), luminescence; format: cell-based
[2] = target: T1, S1P1 receptor; test: S1P1 receptor internalization (endosome formation) assay in S1P1 overexpressing cell line (DiscoverX), luminescence; format: cell-based
[3] = S1P1 overexpressing cell line, β-arrestin recruitment, luminescence, read-out: β-arrestin EC50
[4] = S1P1 overexpressing cell line, endosome formation by internalization, luminescence, read-out: Internalization EC50

T1 sequence (P21453 whole entry): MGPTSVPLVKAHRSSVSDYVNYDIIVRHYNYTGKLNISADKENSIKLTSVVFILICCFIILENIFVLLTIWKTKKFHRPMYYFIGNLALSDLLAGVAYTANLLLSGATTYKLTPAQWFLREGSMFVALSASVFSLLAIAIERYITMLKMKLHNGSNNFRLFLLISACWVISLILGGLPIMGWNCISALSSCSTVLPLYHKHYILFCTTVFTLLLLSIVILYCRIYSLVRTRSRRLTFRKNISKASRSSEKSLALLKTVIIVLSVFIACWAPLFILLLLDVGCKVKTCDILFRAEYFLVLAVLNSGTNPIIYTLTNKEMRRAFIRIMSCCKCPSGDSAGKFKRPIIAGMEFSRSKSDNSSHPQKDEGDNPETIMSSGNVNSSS

Compound	EC50 [1]	EC50 [2]	EC50 [1, 3]	EC50 [2, 4]
CCOC(=O)CNCc1ccc(-c2cnc(-c3ccc(OC(C)C)c(Cl)c3)[se]2)cc1 [Compound 35, Ethyl 2-(4-(2-(3-chloro-4-isopropoxyphenyl)-1,3-selenazole-5-yl)benzylamino)acetate]	21 nM	11.5 nM	–	–
COC(=O)C1CN(Cc2ccc(-c3ncc(-c4ccc(OC(C)C)c(Cl)c4)[se]3)cc2)C1 [Compound 41, Methyl 1-(4-(5-(3-chloro-4-isopropoxyphenyl)-1,3-selenazole-2-yl)benzyl)azetidine-3-carboxylate]	0.9 nM	9.52 nM	–	–
COc1ccc(-c2ncc(-c3ccc(CN4CC(C(=O)O)C4)cc3)[se]2)cc1 [Compound 17, 1-(4-(2-(4-methoxyphenyl)-1,3-selenazole-5-yl)benzyl)azetidine-3-carboxylic acid]	25.9 nM	81.3 nM	–	–
CCOC(=O)C1CN(Cc2ccc(-c3cnc(-c4ccc(OC(C)C)cc4)[se]3)cc2)C1 [Compound 20, Ethyl 1-(4-(2-(4-isopropoxyphenyl)-1,3-selenazole-5-yl)benzyl)azetidine-3-carboxylate]	3.05 nM	119 nM	–	–
COC(=O)CCNCc1ccc(-c2cnc(-c3ccc(OC(C)C)c(Cl)c3)[se]2)cc1 [Compound 37, Methyl 3-(4-(2-(3-chloro-4-isopropoxyphenyl)-1,3-selenazole-5-yl)benzylamino)propanoate]	7.88 nM	13.5 nM	–	–
COC(=O)C1CN(Cc2ccc(-c3cnc(-c4ccc(OC(C)C)c(C#N)c4)[se]3)cc2)C1 [Compound 5]	3.64 nM	0.87 nM	–	–
COC(=O)C1CN(Cc2ccc(-c3ncc(-c4ccc(C(C)(C)C)cc4)[se]3)cc2)C1 [Compound 39, Methyl 1-(4-(5-(4-tert-butylphenyl)-1,3-selenazole-2-yl)benzyl)azetidine-3-carboxylate]	39.2 nM	160 nM	–	–
CC(C)(C)OC(=O)C1CN(Cc2ccc(-c3cnc(-c4ccc(C(C)(C)C)cc4)[se]3)cc2)C1 [Compound 4, Tert-butyl 1-(4-(2-(4-tert-butylphenyl)-1,3-selenazole-5-yl)benzyl)azetidine-3-carboxylate]	70.1 nM	141 nM	–	–
CC(C)Oc1ccccc1-c1ncc(-c2ccc(CN3CC(C(=O)O)C3)cc2)[se]1 [Compound 24, 1-(4-(2-(2-isopropoxyphenyl)-1,3-selenazole-5-yl)benzyl)azetidine-3-carboxylic acid]	–	–	> 1000 nM	> 1000 nM
CCOC(=O)C1CN(Cc2ccc(-c3cnc(-c4ccccc4OC(C)C)[se]3)cc2)C1 [Compound 25, Ethyl 1-(4-(2-(2-isopropoxyphenyl)-1,3-selenazole-5-yl)benzyl)azetidine-3-carboxylate]	–	–	252 nM	347 nM
COC(=O)C1CN(Cc2ccc(-c3cnc(-c4ccc(OC(C)C)cc4)[se]3)cc2)C1 [Compound 18, Methyl 1-(4-(2-(4-isopropoxyphenyl)-1,3-selenazole-5-yl)benzyl)azetidine-3-carboxylate]	3.24 nM	9.26 nM	–	–
CCOC(=O)C1CN(Cc2ccc(-c3cnc(-c4ccc(OC(C)C)c(C#N)c4)[se]3)cc2)C1 [Compound 7, Ethyl 1-(4-(2-(3-cyano-4-isopropoxyphenyl)-1,3-selenazole-5-yl)benzyl)azetidine-3-carboxylate]	1.17 nM	4.33 nM	–	–
COC(=O)C1CN(Cc2ccc(-c3cnc(-c4ccc(OC(C)C)c(Cl)c4)[se]3)cc2)C1 [Compound 12, Methyl 1-(4-(2-(3-chloro-4-isopropoxyphenyl)-1,3-selenazole-5-yl)benzyl)azetidine-3-carboxylate]	1.41 nM	1.48 nM	–	–
COC(=O)C1CCN(Cc2ccc(-c3cnc(-c4ccc(C(C)(C)C)cc4)[se]3)cc2)C1 (stereo not drawn) [Compound 30, Methyl 1-(4-(2-(4-tert-butylphenyl)-1,3-selenazole-5-yl)benzyl)pyrrolidine-3-carboxylate]	8.5 nM	205 nM	–	–
COC(=O)C1CN(Cc2ccc(-c3cnc(-c4cccc(OC(C)C)c4)[se]3)cc2)C1 [Compound 21, Methyl 1-(4-(2-(3-isopropoxyphenyl)-1,3-selenazole-5-yl)benzyl)azetidine-3-carboxylate]	–	–	503 nM	379 nM
CCOc1ccc(-c2ncc(-c3ccc(CN4CC(C(=O)OC)C4)cc3)[se]2)cc1Cl [Compound 14, Methyl 1-(4-(2-(3-chloro-4-ethoxyphenyl)-1,3-selenazole-5-yl)benzyl)azetidine-3-carboxylate]	1.13 nM	4.91 nM	–	–
COC(=O)C1CN(Cc2ccc(-c3cnc(-c4ccccc4OC(C)C)[se]3)cc2)C1 [Compound 23, Methyl 1-(4-(2-(2-isopropoxyphenyl)-1,3-selenazole-5-yl)benzyl)azetidine-3-carboxylate]	–	–	> 1000 nM	> 1000 nM

Compound	EC50 [1]	EC50 [2]	EC50 [1, 3]	EC50 [2, 4]
COC(=O)C1CN(Cc2ccc(-c3cnc(-c4ccccn4)[se]3)cc2)C1 [Compound 26, Methyl 1-(4-(2-(pyridine-2-yl)-1,3-selenazole-5-yl)benzyl)azetidine-3-carboxylate]	–	–	> 1000 nM	> 1000 nM
COC(=O)C1CN(Cc2ccc(-c3cnc(-c4ccc(C(C)(C)C)cc4)[se]3)cc2)C1 [Compound 1, Methyl 1-(4-(2-(4-tert-butylphenyl)-1,3-selenazole-5-yl)benzyl)azetidine-3-carboxylate]	11.1 nM	173 nM	–	–
CC(C)Oc1ccc(-c2ncc(-c3ccc(CN4CC(C(=O)OC(C)(C)C)C4)cc3)[se]2)cc1C#N [Compound 8, Tert-butyl 1-(4-(2-(3-cyano-4-isopropoxyphenyl)-1,3-selenazole-5-yl)benzyl)azetidine-3-carboxylate]	29.9 nM	33.1 nM	–	–
CCOC(=O)C1CN(Cc2ccc(-c3cnc(-c4ccc(OC(C)C)c(C(F)(F)F)c4)[se]3)cc2)C1 [Compound 11, Ethyl 1-(4-(2-(4-isopropoxy-3-(trifluoromethyl)phenyl)-1,3-selenazole-5-yl)benzyl)azetidine-3-carboxylate]	1.49 nM	12.6 nM	–	–
CC(C)Oc1ccc(-c2ncc(-c3ccc(CN4CC(C(=O)O)C4)cc3)[se]2)cc1C#N [Compound 6]	0.37 nM	0.065 nM	–	–
CCOC(=O)C1CN(Cc2ccc(-c3cnc(-c4ccc(C(C)(C)C)cc4)[se]3)cc2)C1 [Compound 3, Ethyl 1-(4-(2-(4-tert-butylphenyl)-1,3-selenazole-5-yl)benzyl)azetidine-3-carboxylate]	23.6 nM	116 nM	–	–
COC(=O)C1CN(Cc2ccc(-c3cnc(-c4ccc(OC)cc4)[se]3)cc2)C1 [Compound 16, Methyl 1-(4-(2-(4-methoxyphenyl)-1,3-selenazole-5-yl)benzyl)azetidine-3-carboxylate]	48.5 nM	139 nM	–	–
O=C(O)C1CN(Cc2ccc(-c3cnc(-c4ccccn4)[se]3)cc2)C1 [Compound 27, Sodium 1-(4-(2-(pyridine-2-yl)-1,3-selenazole-5-yl)benzyl)azetidine-3-carboxylate]	–	–	> 1000 nM	> 1000 nM
COC(=O)C1CCN(Cc2ccc(-c3cnc(-c4ccc(OC(C)C)c(Cl)c4)[se]3)cc2)C1 (stereo not drawn) [Compound 33, Methyl 1-(4-(2-(3-chloro-4-isopropoxyphenyl)-1,3-selenazole-5-yl)benzyl)pyrrolidine-3-carboxylate]	1.79 nM	11.9 nM	–	–
CC(C)Oc1ccc(-c2ncc(-c3ccc(CN4CC(C(=O)O)C4)cc3)[se]2)cc1C(F)(F)F [Compound 10, 1-(4-(2-(4-isopropoxy-3-(trifluoromethyl)phenyl)-1,3-selenazole-5-yl)benzyl)azetidine-3-carboxylic acid]	0.45 nM	0.36 nM	–	–
O=C(O)C1CN(Cc2ccc(-c3cnc(-c4cccnc4)[se]3)cc2)C1 [Compound 29, Sodium 1-(4-(2-(pyridine-3-yl)-1,3-selenazole-5-yl)benzyl)azetidine-3-carboxylate]	–	–	635 nM	379 nM
CC(C)Oc1ccc(-c2ncc(-c3ccc(CN4CC(C(=O)O)C4)cc3)[se]2)cc1 [Compound 19, 1-(4-(2-(4-isopropoxyphenyl)-1,3-selenazole-5-yl)benzyl)azetidine-3-carboxylic acid]	1.14 nM	0.97 nM	–	–
COC(=O)C1CN(Cc2ccc(-c3cnc(-c4cccnc4)[se]3)cc2)C1 [Compound 28, Methyl 1-(4-(2-(pyridine-3-yl)-1,3-selenazole-5-yl)benzyl)azetidine-3-carboxylate]	–	–	> 1000 nM	> 1000 nM
CC(C)Oc1cccc(-c2ncc(-c3ccc(CN4CC(C(=O)O)C4)cc3)[se]2)c1 [Compound 22, 1-(4-(2-(3-isopropoxyphenyl)-1,3-selenazole-5-yl)benzyl)azetidine-3-carboxylic acid]	8.59 nM	97.4 nM	–	–
COC(=O)C1CCN(Cc2ccc(-c3cnc(-c4ccc(C(C)(C)C)cc4)[se]3)cc2)CC1 [Compound 32, Methyl 1-(4-(2-(4-tert-butylphenyl)-1,3-selenazole-5-yl)benzyl)piperidine-4-carboxylate]	–	–	580 nM	519 nM
COC(=O)C1CN(Cc2ccc(-c3cnc(-c4ccc(OC(C)C)c(C(F)(F)F)c4)[se]3)cc2)C1 [Compound 9, Methyl 1-(4-(2-(4-isopropoxy-3-(trifluoromethyl)phenyl)-1,3-selenazole-5-yl)benzyl)azetidine-3-carboxylate]	1.82 nM	1.59 nM	–	–
